Laboratory results published in patent US20260137703A1, “2-AMINO-PYRIDO[2,3-D]PYRIMIDIN-7(8H)-ONE AND 7-AMINO-1-PYRIMIDO[4,5-D]PYRIMIDIN-2(1 H)-ONE DERIVATIVES AS EGFR INHIBITORS FOR THE TREATMENT OF CANCER” (Cancer Research Technology Limited, priority 2022, published 2026).

Legend:
[1] = target: CtermHisTag-mEGFR Wild type (Homo sapiens, UniProt P00533); assay: biochemical
[2] = target: T1, Phospho-EGFR (Tyr1068) in H1975 cells (Homo sapiens, UniProt P00533, L858R/T790M); assay: HTRF pEGFR/total EGFR in H1975 cells; format: cell-based; conditions: ratio pEGFR/total EGFR, compound 3 hours
T1 construct: host or cells: H1975
Method: (§1) H1975 cells (ATCC CRL-5908) were plated at 20,000 cells per well in 96 well plates and placed at 37° C. 5% CO2. Once adhered (after 24 h) cells were treated with compounds dissolved in DMSO at a final concentration of 0.1% DMSO in media. Compounds were diluted in media then added to cells for 3 hours in duplicate. Compound and media were removed from the cells, then 50 ul of HTRF lysis buffer is added (lysis buffer was diluted from 4× stock to 1× in DI water, with 1% blocking agent also added). Cells were lysed on a plate shaker (2000 rpm) for 30 minutes at room temperature. pEGFR expression was monitored using the Cisbio Phospho-EGFR (Tyri068) cellular kit (64EG1PEH). Total EGFR expression was monitored using the Cisbio Total EGFR cellular kit (64NG1PEH) as per manufacturer's instructions. Fluorescence emission was read at two different wavelengths (665 nm and 620 nm) on a PheraStar. Results were calculated as ratio of pEGFR/total EGFR and then percentage of 0 μM control.

[3] = target: T2, Phospho-EGFR (Tyr1068) in H1975 C797S cells (CRISPR-edited EGFR C797S) (Homo sapiens, UniProt P00533, C797S/L858R/T790M); assay: HTRF pEGFR/total EGFR in H1975 C797S cells; format: cell-based; conditions: ratio pEGFR/total EGFR, compound 3 hours
T2 construct: host or cells: H1975 C797S (CRISPR-edited)
Method: as §1, with “[…]. Once” for “H1975 cells (ATCC CRL-5908) were plated at 20,000 cells per well in 96 well plates and placed at 37° C. 5% CO2. Once”, “buffer was” for “buffer is”, “Phospho-EGFR (Tyr1068)” for “Phospho-EGFR (Tyri068)”

[4] = target: T3, Phospho-EGFR (Tyr1068) in A431 cells (Homo sapiens, UniProt P00533); assay: HTRF pEGFR/total EGFR in A431 cells with EGF stimulation; format: cell-based; conditions: ratio pEGFR/total EGFR, compound 2.5 hours then 100 ng/ml EGF 30 mins
T3 construct: endogenous in cells; host or cells: A431
Method: Cells were plated at 20,000 cells per well in 96 well plates and placed at 37° C. 5% CO2. Once adhered (after 24 h) cells were treated with compounds dissolved in DMSO at a final concentration of 0.1% DMSO in media. Compounds were diluted in media then added to cells for 2.5 hours in duplicate, 100 ng/ml EGF (ThermoFisher, PHG0311) was added to all compound treated cells as well as a control for 30 mins. Compound and media were removed from the cells, then 50 ul of HTRF lysis buffer was added (lysis buffer was diluted from 4× stock to 1× in DI water, with 1% blocking agent also added). Cells were lysed on a plate shaker (2000 rpm) for 30 minutes at room temperature. pEGFR expression was monitored using the Cisbio Phospho-EGFR (Tyr1068) cellular kit (64EG1PEH). Total EGFR expression was monitored using the Cisbio Total EGFR cellular kit (64NG1PEH) as per manufacturer's instructions. Fluorescence emission was read at two different wavelengths (665 nm and 620 nm) on a PheraStar. Results were calculated as ratio of pEGFR/total EGFR and then percentage of 0 μM control.

T2 sequence (P00533 25-1210 T790M/C797S/L858R): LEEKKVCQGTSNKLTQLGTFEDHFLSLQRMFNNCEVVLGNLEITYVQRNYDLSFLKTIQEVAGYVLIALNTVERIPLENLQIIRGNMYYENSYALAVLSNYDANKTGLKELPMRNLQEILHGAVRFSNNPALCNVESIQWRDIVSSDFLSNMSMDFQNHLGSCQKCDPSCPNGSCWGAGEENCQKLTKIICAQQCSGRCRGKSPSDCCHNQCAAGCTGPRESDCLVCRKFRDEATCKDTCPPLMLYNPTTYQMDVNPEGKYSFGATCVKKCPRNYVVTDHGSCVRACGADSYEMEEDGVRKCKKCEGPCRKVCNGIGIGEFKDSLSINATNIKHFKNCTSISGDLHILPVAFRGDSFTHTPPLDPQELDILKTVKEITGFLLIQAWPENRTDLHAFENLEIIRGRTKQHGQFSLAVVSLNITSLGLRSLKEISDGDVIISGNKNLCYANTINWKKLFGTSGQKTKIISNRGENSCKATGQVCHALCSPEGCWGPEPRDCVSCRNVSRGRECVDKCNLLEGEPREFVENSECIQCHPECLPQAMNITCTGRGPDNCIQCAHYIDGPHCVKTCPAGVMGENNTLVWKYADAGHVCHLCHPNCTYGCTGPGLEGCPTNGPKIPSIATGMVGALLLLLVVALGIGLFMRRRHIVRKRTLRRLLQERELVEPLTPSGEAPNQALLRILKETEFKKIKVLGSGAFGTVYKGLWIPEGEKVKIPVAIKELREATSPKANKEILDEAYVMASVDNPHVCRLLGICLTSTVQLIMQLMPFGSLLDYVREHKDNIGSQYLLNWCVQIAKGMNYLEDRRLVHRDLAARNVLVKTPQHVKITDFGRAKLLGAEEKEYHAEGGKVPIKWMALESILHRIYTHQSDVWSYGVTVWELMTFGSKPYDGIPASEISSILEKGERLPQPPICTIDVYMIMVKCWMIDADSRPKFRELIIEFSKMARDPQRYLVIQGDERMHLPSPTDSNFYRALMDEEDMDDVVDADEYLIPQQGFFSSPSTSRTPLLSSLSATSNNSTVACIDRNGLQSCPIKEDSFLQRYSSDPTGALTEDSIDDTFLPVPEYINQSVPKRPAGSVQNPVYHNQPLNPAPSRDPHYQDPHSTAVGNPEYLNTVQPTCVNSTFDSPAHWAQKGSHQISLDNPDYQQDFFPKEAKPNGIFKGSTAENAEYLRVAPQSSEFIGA
T1 sequence (P00533 25-1210 T790M/L858R): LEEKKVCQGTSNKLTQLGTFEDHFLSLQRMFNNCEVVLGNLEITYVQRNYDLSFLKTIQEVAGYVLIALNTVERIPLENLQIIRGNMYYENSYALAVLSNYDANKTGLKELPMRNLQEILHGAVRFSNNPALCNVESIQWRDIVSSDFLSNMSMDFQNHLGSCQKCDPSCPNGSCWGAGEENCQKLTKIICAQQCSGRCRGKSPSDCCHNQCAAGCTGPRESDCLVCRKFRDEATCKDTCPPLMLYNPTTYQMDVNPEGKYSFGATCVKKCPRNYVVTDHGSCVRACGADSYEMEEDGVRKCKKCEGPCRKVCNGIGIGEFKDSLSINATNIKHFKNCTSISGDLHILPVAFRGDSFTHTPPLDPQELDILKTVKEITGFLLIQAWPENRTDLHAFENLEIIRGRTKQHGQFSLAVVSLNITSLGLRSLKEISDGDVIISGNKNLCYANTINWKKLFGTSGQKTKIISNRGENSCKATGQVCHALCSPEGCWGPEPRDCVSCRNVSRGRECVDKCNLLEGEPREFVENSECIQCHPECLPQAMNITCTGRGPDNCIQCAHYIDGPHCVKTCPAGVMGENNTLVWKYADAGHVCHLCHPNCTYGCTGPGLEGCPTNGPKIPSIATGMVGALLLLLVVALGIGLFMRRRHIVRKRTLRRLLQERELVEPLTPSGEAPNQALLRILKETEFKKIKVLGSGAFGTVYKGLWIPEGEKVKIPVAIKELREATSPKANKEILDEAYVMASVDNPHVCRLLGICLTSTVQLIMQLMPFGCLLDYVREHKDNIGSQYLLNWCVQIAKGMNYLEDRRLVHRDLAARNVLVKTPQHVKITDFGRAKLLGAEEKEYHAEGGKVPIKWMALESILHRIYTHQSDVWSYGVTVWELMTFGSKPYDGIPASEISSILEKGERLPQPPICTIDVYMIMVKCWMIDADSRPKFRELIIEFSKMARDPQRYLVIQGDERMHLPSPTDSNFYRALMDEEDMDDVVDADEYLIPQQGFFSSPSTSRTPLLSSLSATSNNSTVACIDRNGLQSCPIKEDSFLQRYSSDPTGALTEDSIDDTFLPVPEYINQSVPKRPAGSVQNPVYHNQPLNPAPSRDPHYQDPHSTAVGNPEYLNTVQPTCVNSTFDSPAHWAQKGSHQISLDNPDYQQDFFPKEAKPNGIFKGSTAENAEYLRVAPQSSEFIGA
T3 sequence (P00533 25-1210): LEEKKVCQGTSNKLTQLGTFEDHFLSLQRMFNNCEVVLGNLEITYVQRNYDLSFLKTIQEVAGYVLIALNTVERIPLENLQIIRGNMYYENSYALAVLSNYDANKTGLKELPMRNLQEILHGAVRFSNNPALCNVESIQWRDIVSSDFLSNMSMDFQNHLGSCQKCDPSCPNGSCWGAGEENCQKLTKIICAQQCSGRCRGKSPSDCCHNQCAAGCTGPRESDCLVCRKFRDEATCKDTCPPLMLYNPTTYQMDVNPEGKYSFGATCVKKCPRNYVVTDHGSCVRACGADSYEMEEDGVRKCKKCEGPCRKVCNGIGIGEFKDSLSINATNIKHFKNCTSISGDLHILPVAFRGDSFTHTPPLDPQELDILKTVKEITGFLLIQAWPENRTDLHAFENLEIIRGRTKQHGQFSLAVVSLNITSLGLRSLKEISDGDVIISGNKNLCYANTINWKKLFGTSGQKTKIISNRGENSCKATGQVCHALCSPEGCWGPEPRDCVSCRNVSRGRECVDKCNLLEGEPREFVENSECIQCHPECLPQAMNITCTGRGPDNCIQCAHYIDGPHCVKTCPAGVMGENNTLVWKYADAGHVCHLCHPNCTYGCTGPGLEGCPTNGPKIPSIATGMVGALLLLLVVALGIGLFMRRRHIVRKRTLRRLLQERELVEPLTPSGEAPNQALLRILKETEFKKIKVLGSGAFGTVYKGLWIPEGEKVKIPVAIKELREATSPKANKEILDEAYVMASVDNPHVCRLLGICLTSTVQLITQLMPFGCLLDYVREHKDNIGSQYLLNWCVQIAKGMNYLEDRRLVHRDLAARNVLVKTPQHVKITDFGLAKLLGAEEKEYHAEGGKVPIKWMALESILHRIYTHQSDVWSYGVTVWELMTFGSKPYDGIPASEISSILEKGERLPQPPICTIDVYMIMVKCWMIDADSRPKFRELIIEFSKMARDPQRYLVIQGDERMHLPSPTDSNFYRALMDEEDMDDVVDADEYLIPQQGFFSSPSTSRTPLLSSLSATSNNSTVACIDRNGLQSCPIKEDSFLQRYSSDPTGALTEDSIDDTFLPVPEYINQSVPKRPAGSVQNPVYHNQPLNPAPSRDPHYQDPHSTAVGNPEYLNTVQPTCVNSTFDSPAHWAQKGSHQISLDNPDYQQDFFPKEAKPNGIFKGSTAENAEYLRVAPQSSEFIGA
CtermHisTag-mEGFR Wild type, sequence (P00533 whole entry): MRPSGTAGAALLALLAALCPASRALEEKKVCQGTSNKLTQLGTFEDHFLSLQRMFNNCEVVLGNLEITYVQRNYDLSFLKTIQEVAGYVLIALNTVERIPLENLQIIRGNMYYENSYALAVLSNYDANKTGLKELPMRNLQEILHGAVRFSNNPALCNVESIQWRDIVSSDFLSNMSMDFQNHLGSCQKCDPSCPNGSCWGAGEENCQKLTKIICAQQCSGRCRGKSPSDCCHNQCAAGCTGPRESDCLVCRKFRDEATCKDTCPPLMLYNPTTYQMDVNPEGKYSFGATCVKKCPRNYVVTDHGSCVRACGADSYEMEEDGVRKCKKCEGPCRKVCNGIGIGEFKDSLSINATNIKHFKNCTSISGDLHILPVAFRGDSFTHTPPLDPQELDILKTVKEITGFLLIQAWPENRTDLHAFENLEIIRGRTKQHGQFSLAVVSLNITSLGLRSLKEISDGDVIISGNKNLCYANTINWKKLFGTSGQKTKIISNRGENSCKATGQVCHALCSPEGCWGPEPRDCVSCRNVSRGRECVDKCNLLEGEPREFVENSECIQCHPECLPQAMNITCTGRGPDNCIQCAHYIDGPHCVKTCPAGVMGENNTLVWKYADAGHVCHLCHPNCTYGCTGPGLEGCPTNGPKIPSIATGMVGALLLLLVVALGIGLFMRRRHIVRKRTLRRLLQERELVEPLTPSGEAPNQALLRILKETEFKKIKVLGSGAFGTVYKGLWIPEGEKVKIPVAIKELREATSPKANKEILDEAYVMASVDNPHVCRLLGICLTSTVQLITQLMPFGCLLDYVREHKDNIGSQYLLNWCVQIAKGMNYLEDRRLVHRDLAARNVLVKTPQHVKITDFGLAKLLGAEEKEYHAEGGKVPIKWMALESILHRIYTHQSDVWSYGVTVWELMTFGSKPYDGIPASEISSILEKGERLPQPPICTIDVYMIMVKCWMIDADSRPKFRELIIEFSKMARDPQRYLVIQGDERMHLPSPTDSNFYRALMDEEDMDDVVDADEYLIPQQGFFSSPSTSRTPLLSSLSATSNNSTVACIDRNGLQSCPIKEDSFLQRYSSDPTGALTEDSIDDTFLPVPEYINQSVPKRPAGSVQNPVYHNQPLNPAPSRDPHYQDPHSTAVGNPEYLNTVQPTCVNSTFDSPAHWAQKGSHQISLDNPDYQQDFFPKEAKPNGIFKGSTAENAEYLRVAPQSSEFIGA

| Structure (SMILES) | IC50 [1] [µM] | IC50 [2] [µM] | IC50 [3] [µM] | IC50 [4] [µM] |
| --- | --- | --- | --- | --- |
| C#Cc1cc(=O)n(-c2ccccc2)c2nc(Nc3cnn(C)c3)ncc12 [Example 25, 5-Ethynyl-2-[(1-methylpyrazol-4-yl)amino]-8-phenylpyrido[2,3-d]pyrimidin-7-one] | < 1 | 1 to 3 | 1 to 3 | > 3 |
| C#Cc1cc(=O)n(-c2ccccc2)c2nc(Nc3ccc4c(c3)CCNCC4)ncc12 [Example 26, 5-ethynyl-8-phenyl-2-(2,3,4,5-tetrahydro-1H-3-benzazepin-7-ylamino)pyrido [2,3-d]pyrimidin-7-one] | < 1 | < 0.5 | < 0.5 | 1 to 3 |
| C#Cc1cc(=O)n(-c2ccccc2)c2nc(Nc3ccc(N4CCNC(C)C4)cc3)ncc12 (stereo not drawn) [Example 27, 5-Ethynyl-2-{[4-(3-methylpiperazin-1-yl)phenyl]amino}-8-phenylpyrido[2,3-d]pyrimidin-7-one] | < 1 | < 0.5 | < 0.5 | 1 to 3 |
| C#Cc1cc(=O)n(-c2ccccc2)c2nc(Nc3ccc(N4CCC(N5CC(CO)C5)CC4)cc3)ncc12 [Example 28] | < 1 | < 0.5 | < 0.5 | 1 to 3 |
| C#Cc1cc(=O)n(-c2ccccc2)c2nc(Nc3ccc(N4CCC(N5CC(N(C)C)C5)CC4)cc3)ncc12 [Example 29, 2-[(4-{4-[3-(Dimethylamino)azetidin-1-yl]piperidin-1-yl}phenyl)amino]-5-ethynyl-8-phenylpyrido[2,3-d]pyrimidin-7-one] | < 1 | < 0.5 | < 0.5 | > 3 |
| C#Cc1cc(=O)n(-c2ccccc2)c2nc(Nc3ccc(N4CCC(N5CC(F)(CO)C5)CC4)cc3)ncc12 [Example 30, 5-Ethynyl-2-[(4-{4-[3-fluoro-3-(hydroxymethyl)azetidin-1-yl]piperidin-1-yl}phenyl)amino]-8-phenylpyrido[2,3-d]pyrimidin-7-one] | < 1 | < 0.5 | < 0.5 | > 3 |

Further lines, results first:

| IC50 [1] [µM] | IC50 [2] [µM] | IC50 [3] [µM] | IC50 [4] [µM] | Structure (SMILES) |
| --- | --- | --- | --- | --- |
| < 1 | < 0.5 | 0.5 to 1 | > 3 | C#Cc1cc(=O)n(-c2ccccc2)c2nc(Nc3cnn(C4CCN(C)CC4)c3)ncc12 [Example 19, 5-Ethynyl-2-{[1-(1-methylpiperidin-4-yl)pyrazol-4-yl]amino}-8-phenylpyrido[2,3-d]pyrimidin-7-one] |
| < 1 | < 0.5 | < 0.5 | 1 to 3 | C#Cc1cc(=O)n(-c2ccccc2)c2nc(Nc3ccc(N4CCCNCC4)cc3)ncc12 [Example 20, 2-{[4-(1,4-Diazepan-1-yl)phenyl]amino}-5-ethynyl-8-phenylpyrido[2,3-d]pyrimidin-7-one] |
| < 1 | < 0.5 | < 0.5 | 1 to 3 | C#Cc1cc(=O)n(-c2ccccc2)c2nc(Nc3ccc(C4CCN(C)CC4)cc3)ncc12 [Example 21, 5-Ethynyl-2-{[4-(1-methylpiperidin-4-yl)phenyl]amino}-8-phenylpyrido[2,3-d]pyrimidin-7-one] |
| < 1 | < 0.5 | < 0.5 | > 3 | C#Cc1cc(=O)n(-c2ccccc2)c2nc(Nc3ccc(C4CCNCC4)cc3)ncc12 [Example 22, 5-Ethynyl-8-phenyl-2-{[4-(piperidin-4-yl)phenyl]amino}pyrido[2,3-d]pyrimidin-7-one] |
| < 1 | < 0.5 | < 0.5 | 1 to 3 | C#Cc1cc(=O)n(-c2ccccc2)c2nc(Nc3ccc(N4CCC(N5CCN(C)CC5)CC4)cc3)ncc12 [Example 23, 5-Ethynyl-2-({4-[4-(4-methylpiperazin-1-yl)piperidin-1-yl]phenyl}amino)-8-phenylpyrido[2,3-d]pyrimidin-7-one] |
| < 1 | < 0.5 | < 0.5 | > 3 | C#Cc1cc(=O)n(-c2ccccc2)c2nc(Nc3ccc(N4CCN(C)CC4)c(CC)c3)ncc12 [Example 24, 2-{[3-Ethyl-4-(4-methylpiperazin-1-yl)phenyl]amino}-5-ethynyl-8-phenylpyrido[2,3-d]pyrimidin-7-one] |
